Calls of active or inactive are those of the source. How the calls were made is not given here.
System: CCRIS mutagenicity, Ames/micronucleus/aberration tests
Experiment: CCRIS mutagenicity studies
[1] = Test System: AMES SALMONELLA TYPHIMURIUM, Strain/Indicator: TA98, Metabolic Activation: NONE, Method: PREINCUBATION
[2] = Test System: AMES SALMONELLA TYPHIMURIUM, Strain/Indicator: TA100, Metabolic Activation: NONE, Method: PREINCUBATION
[3] = Test System: AMES SALMONELLA TYPHIMURIUM, Strain/Indicator: TA98, Metabolic Activation: NONE, Method: STANDARD PLATE
[4] = Test System: AMES SALMONELLA TYPHIMURIUM, Strain/Indicator: TA100, Metabolic Activation: NONE, Method: STANDARD PLATE

Q: Which mutagenic call (End Point: IN VITRO CHROMOSOMAL ABERRATIONS, Test System: CHINESE HAMSTER LUNG CELLS (CHL), Metabolic Activation: NONE) does the source give for CN(C)c1ccc(N)cc1 here?
A: active; positive (structural changes)

Q: And the mutagenic call (End Point: IN VITRO CHROMOSOMAL ABERRATIONS, Test System: CHINESE HAMSTER LUNG CELLS (CHL), Metabolic Activation: RAT, LIVER, S-9, KC-400)?
A: inactive; negative; authors describe results at highest dose as equivocal

Q: And the mutagenic call (End Point: IN VITRO CHROMOSOMAL ABERRATIONS, Test System: CHINESE HAMSTER OVARY CELLS (CHO), Metabolic Activation: NONE)?
A: inactive; positive at highest dose; authors describe overall results as negative

Q: What about the mutagenic call (End Point: IN VITRO CHROMOSOMAL ABERRATIONS, Test System: CHINESE HAMSTER OVARY CELLS (CHO), Metabolic Activation: RAT, LIVER, S-9, AROCLOR 1254) of the same compound?
A: inactive; negative

Q: What about the mutagenic call (Test System: AMES SALMONELLA TYPHIMURIUM, Strain/Indicator: TA98, Metabolic Activation: HAMSTER, LIVER, S-9, AROCLOR 1254 (30%), Method: PREINCUBATION) of the same compound?
A: active; positive

Q: And the mutagenic call [1]?
A: inactive; negative

Q: What about the mutagenic call (Test System: AMES SALMONELLA TYPHIMURIUM, Strain/Indicator: TA98, Metabolic Activation: RAT, LIVER, S-9, AROCLOR 1254 (30%), Method: PREINCUBATION) of the same compound?
A: active; positive

Q: What about the mutagenic call (Test System: AMES SALMONELLA TYPHIMURIUM, Strain/Indicator: TA100, Metabolic Activation: HAMSTER, LIVER, S-9, AROCLOR 1254 (30%), Method: PREINCUBATION) of the same compound?
A: inactive; negative

Q: And the mutagenic call [2]?
A: inactive; negative

Q: And the mutagenic call (Test System: AMES SALMONELLA TYPHIMURIUM, Strain/Indicator: TA100, Metabolic Activation: RAT, LIVER, S-9, AROCLOR 1254 (30%), Method: PREINCUBATION)?
A: inactive; negative

Q: And the mutagenic call (Test System: Ames Salmonella typhimurium, Strain/Indicator: TA102, Metabolic Activation: None, Method: Preincubation)?
A: inactive; negative

Q: And the mutagenic call (Test System: Ames Salmonella typhimurium, Strain/Indicator: TA102, Metabolic Activation: Rat, Liver, S9, Aroclor 1254, Method: Preincubation)?
A: active; positive

Q: And the mutagenic call (Test System: Ames Salmonella typhimurium, Strain/Indicator: TA104, Metabolic Activation: None, Method: Preincubation)?
A: inactive; negative

Q: And the mutagenic call (Test System: Ames Salmonella typhimurium, Strain/Indicator: TA104, Metabolic Activation: Rat, Liver, S9, Aroclor 1254, Method: Preincubation)?
A: active; positive

Q: What does the source list for O=C[C@H](O)[C@@H](O)[C@H](O)CO?
A: mutagenic call (Test System: AMES SALMONELLA TYPHIMURIUM, Strain/Indicator: TA97A, Metabolic Activation: NONE, Method: PREINCUBATION): inactive; negative; mutagenic call (Test System: AMES SALMONELLA TYPHIMURIUM, Strain/Indicator: TA97A, Metabolic Activation: RAT, LIVER, S-9, AROCLOR 1254, Method: PREINCUBATION): inactive; negative; mutagenic call (Test System: AMES SALMONELLA TYPHIMURIUM, Strain/Indicator: TA102, Metabolic Activation: NONE, Method: PREINCUBATION): inactive; negative; mutagenic call (Test System: AMES SALMONELLA TYPHIMURIUM, Strain/Indicator: TA102, Metabolic Activation: RAT, LIVER, S-9, AROCLOR 1254, Method: PREINCUBATION): inactive; negative

Q: Which mutagenic call [1] does the source give for Clc1nncc2cnccc12 here?
A: inactive; negative

Q: And the mutagenic call (Test System: AMES SALMONELLA TYPHIMURIUM, Strain/Indicator: TA98, Metabolic Activation: RAT, LIVER, S-9, PCB, Method: PREINCUBATION)?
A: inactive; negative

Q: And the mutagenic call [2]?
A: inactive; negative

Q: And the mutagenic call (Test System: AMES SALMONELLA TYPHIMURIUM, Strain/Indicator: TA100, Metabolic Activation: RAT, LIVER, S-9, PCB, Method: PREINCUBATION)?
A: inactive; negative

Q: How did the mutagenic call (Test System: AMES SALMONELLA TYPHIMURIUM, Strain/Indicator: TA97A, Metabolic Activation: NONE, Method: STANDARD PLATE) turn out when C=C(C)C(=O)OCC(O)COc1ccc(C(C)(C)c2ccc(OCC(O)COC(=O)C(=C)C)cc2)cc1 (centres undefined) was run?
A: inactive; negative

Q: And the mutagenic call (Test System: AMES SALMONELLA TYPHIMURIUM, Strain/Indicator: TA97A, Metabolic Activation: RAT LIVER S-9, PHENOBARBITAL AND BETA-NAPHTHAFLAVONE, Method: STANDARD PLATE)?
A: inactive; negative

Q: What about the mutagenic call [3] of the same compound?
A: inactive; negative

Q: What about the mutagenic call (Test System: AMES SALMONELLA TYPHIMURIUM, Strain/Indicator: TA98, Metabolic Activation: RAT LIVER S-9, PHENOBARBITAL AND BETA-NAPHTHAFLAVONE, Method: STANDARD PLATE) of the same compound?
A: inactive; negative

Q: What about the mutagenic call [4] of the same compound?
A: inactive; negative

Q: And the mutagenic call (Test System: AMES SALMONELLA TYPHIMURIUM, Strain/Indicator: TA100, Metabolic Activation: RAT LIVER S-9, PHENOBARBITAL AND BETA-NAPHTHAFLAVONE, Method: STANDARD PLATE)?
A: inactive; negative

Q: What about the mutagenic call (Test System: AMES SALMONELLA TYPHIMURIUM, Strain/Indicator: TA102, Metabolic Activation: NONE, Method: STANDARD PLATE) of the same compound?
A: inactive; negative

Q: What about the mutagenic call (Test System: AMES SALMONELLA TYPHIMURIUM, Strain/Indicator: TA102, Metabolic Activation: RAT LIVER S-9, PHENOBARBITAL AND BETA-NAPHTHAFLAVONE, Method: STANDARD PLATE) of the same compound?
A: inactive; negative

Q: What about the mutagenic call (Test System: CHINESE HAMSTER OVARY V-79, Strain/Indicator: V79 (HPRT)/6-THIOGUANINE, Metabolic Activation: NONE) of the same compound?
A: inactive; negative

Q: With C(=Nc1ccccc1)c1cccc2cccnc12 as the compound, how does the mutagenic call [3] read?
A: inactive; negative

Q: What about the mutagenic call (Test System: AMES SALMONELLA TYPHIMURIUM, Strain/Indicator: TA98, Metabolic Activation: RAT, LIVER, S-9, AROCLOR 1254, Method: STANDARD PLATE) of the same compound?
A: inactive; negative

Q: What about the mutagenic call [4] of the same compound?
A: inactive; negative

Q: And the mutagenic call (Test System: AMES SALMONELLA TYPHIMURIUM, Strain/Indicator: TA100, Metabolic Activation: RAT, LIVER, S-9, AROCLOR 1254, Method: STANDARD PLATE)?
A: active; positive

Q: What about the mutagenic call (Test System: AMES SALMONELLA TYPHIMURIUM, Strain/Indicator: TA1535, Metabolic Activation: NONE, Method: STANDARD PLATE) of the same compound?
A: inactive; negative

Q: What about the mutagenic call (Test System: AMES SALMONELLA TYPHIMURIUM, Strain/Indicator: TA1535, Metabolic Activation: RAT, LIVER, S-9, AROCLOR 1254, Method: STANDARD PLATE) of the same compound?
A: inactive; negative

Q: What about the mutagenic call (Test System: AMES SALMONELLA TYPHIMURIUM, Strain/Indicator: TA1537, Metabolic Activation: NONE, Method: STANDARD PLATE) of the same compound?
A: inactive; negative

Q: What about the mutagenic call (Test System: AMES SALMONELLA TYPHIMURIUM, Strain/Indicator: TA1537, Metabolic Activation: RAT, LIVER, S-9, AROCLOR 1254, Method: STANDARD PLATE) of the same compound?
A: inactive; negative

Q: For N[C@@H](Cc1c[nH]c2ccccc12)C(=O)O, which mutagenic call (Test System: AMES SALMONELLA TYPHIMURIUM, Strain/Indicator: TA97, Metabolic Activation: HAMSTER, LIVER, S-9, AROCLOR 1254 (10 OR 30%), Method: PREINCUBATION) is on record?
A: inactive; negative

Q: And the mutagenic call (Test System: AMES SALMONELLA TYPHIMURIUM, Strain/Indicator: TA97, Metabolic Activation: NONE, Method: PREINCUBATION)?
A: inactive; negative

Q: And the mutagenic call (Test System: AMES SALMONELLA TYPHIMURIUM, Strain/Indicator: TA97, Metabolic Activation: RAT, LIVER, S-9, AROCLOR 1254 (10 OR 30%), Method: PREINCUBATION)?
A: inactive; negative

Q: And the mutagenic call (Test System: AMES SALMONELLA TYPHIMURIUM, Strain/Indicator: TA98, Metabolic Activation: HAMSTER, LIVER, S-9, AROCLOR 1254 (10 OR 30%), Method: PREINCUBATION)?
A: inactive; negative

Q: And the mutagenic call [1]?
A: inactive; negative

Q: And the mutagenic call (Test System: AMES SALMONELLA TYPHIMURIUM, Strain/Indicator: TA98, Metabolic Activation: RAT, LIVER, S-9, AROCLOR 1254 (10 OR 30%), Method: PREINCUBATION)?
A: inactive; negative

Q: And the mutagenic call (Test System: AMES SALMONELLA TYPHIMURIUM, Strain/Indicator: TA100, Metabolic Activation: HAMSTER, LIVER, S-9, AROCLOR 1254 (10 OR 30%), Method: PREINCUBATION)?
A: inactive; negative

Q: And the mutagenic call [2]?
A: inactive; negative

Q: And the mutagenic call (Test System: AMES SALMONELLA TYPHIMURIUM, Strain/Indicator: TA100, Metabolic Activation: RAT, LIVER, S-9, AROCLOR 1254 (10 OR 30%), Method: PREINCUBATION)?
A: inactive; negative

Q: What about the mutagenic call (Test System: AMES SALMONELLA TYPHIMURIUM, Strain/Indicator: TA1535, Metabolic Activation: HAMSTER, LIVER, S-9, AROCLOR 1254 (10 OR 30%), Method: PREINCUBATION) of the same compound?
A: inactive; negative

Q: And the mutagenic call (Test System: AMES SALMONELLA TYPHIMURIUM, Strain/Indicator: TA1535, Metabolic Activation: NONE, Method: PREINCUBATION)?
A: inactive; negative

Q: What about the mutagenic call (Test System: AMES SALMONELLA TYPHIMURIUM, Strain/Indicator: TA1535, Metabolic Activation: RAT, LIVER, S-9, AROCLOR 1254 (10 OR 30%), Method: PREINCUBATION) of the same compound?
A: inactive; negative

Q: And the mutagenic call (Test System: AMES SALMONELLA TYPHIMURIUM, Strain/Indicator: TA1537, Metabolic Activation: HAMSTER, LIVER, S-9, AROCLOR 1254 (30%), Method: PREINCUBATION)?
A: inactive; negative

Q: And the mutagenic call (Test System: AMES SALMONELLA TYPHIMURIUM, Strain/Indicator: TA1537, Metabolic Activation: NONE, Method: PREINCUBATION)?
A: inactive; negative

Q: And the mutagenic call (Test System: AMES SALMONELLA TYPHIMURIUM, Strain/Indicator: TA1537, Metabolic Activation: RAT, LIVER, S-9, AROCLOR 1254 (30%), Method: PREINCUBATION)?
A: inactive; negative

From PubChem BioAssay AID1259407 (Chemical Carcinogenesis Research Information System (CCRIS), 2018)
